In one experiment the target is T1, PKMYT1 (Homo sapiens, UniProt Q99640).
T1 construct: PKMYT1 (93 kD, full length, N-terminal GST tag from Signal Chem); GST (N); purchased Signal Chem
T1 sequence (Q99640 1-499): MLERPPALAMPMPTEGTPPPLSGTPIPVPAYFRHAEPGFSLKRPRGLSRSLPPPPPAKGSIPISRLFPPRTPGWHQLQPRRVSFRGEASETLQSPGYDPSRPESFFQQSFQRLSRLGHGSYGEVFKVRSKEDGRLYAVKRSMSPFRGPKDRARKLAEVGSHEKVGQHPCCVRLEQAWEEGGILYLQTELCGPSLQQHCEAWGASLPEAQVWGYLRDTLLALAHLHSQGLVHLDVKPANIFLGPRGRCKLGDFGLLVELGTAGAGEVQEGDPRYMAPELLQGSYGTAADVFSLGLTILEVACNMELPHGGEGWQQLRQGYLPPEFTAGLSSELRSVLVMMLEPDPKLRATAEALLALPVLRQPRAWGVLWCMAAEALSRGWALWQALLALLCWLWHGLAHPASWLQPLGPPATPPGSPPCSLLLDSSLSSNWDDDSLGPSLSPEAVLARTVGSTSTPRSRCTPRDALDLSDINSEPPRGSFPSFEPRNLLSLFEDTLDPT
Description: ADP-Glo PKMYT1 ATP-depletion assay. The note with it: 50 nM PKMYT1, 13.3 nM CDK1, 88 μM ATP, 120 minutes at RT, read-out: Biochemical IC50. As to the method:
(§1) Biochemical IC50 values were determined via ADP-Glo™ assay. Cellular IC50 values were determined via AlphaLISA assay.
ADP-Glo™ PKMYT1 ATP-depletion assay. The activity of PKMYT1 is measured using a luciferase-luciferin based ATP detection reaction to quantify ATP depletion resulting from kinase-catalyzed phosphoryl transfer to CDK1 or autophosphorylation of PKMYT1. The ADP generated as a byproduct of the reaction is converted to ATP and used to drive a luciferase reaction. Test compounds were dissolved in DMSO and dispensed into Corning 3824 384-well plates prior to the experiment such that the final DMSO concentration was <10%. To the compounds was added 3 μL of PKMYT1 (93 kD, full length, N-terminal GST tag from Signal Chem). The reaction was started by the addition of 2 μL of CDK1 (58 kDa, full length, N-terminal GST tag from Signal Chem) and ATP in assay buffer (50 mM Hepes, 40 mM NaCl, 10 mM MgCl2, 1 mM DTT, 0.1 mg/mL BSA, 2.5 mM MnCl2). Final assay concentrations were 50 nM PKMYT1, 13.3 nM CDK1, and 88 μM ATP. Plates were centrifuged for 1 minute at 1000 RPM and incubated at RT for 120 minutes. After the incubation period, ADP-Glo™ reagent was added and the plates were incubated for another 40 minutes before finally adding the kinase detection reagent, 30 minutes after the addition, plates were placed on a PHERAstar® plate reader and read using the Luminescence Protocol, integration time at 0.5 seconds.

The subject of experiment [1] is phosphorylation of CDK1 at Thr14 in HCC1806 cells. Description: Cell lysate AlphaLISA assay measuring inhibition of phosphorylation of CDK1 Thr14. Type of experiment: cell-based. The note with it: compounds incubated 4 hours, AlphaLISA SureFire Ultra CDK1 Thr14, read-out: Cellular IC50. As to the method:
as §1
Cell lysate AlphaLISA® assay measuring inhibition of phosphorvlation of CDK1 Thr14. Inhibition of phosphorylation of CDK1 at Thr14 was determined using AlphaLISAn SureFire® Ultra™ Kit from Perkin Elmer (ALSU-PCDK1-A10K). HCC1806 cells were seeded at 2K cells per well (50 μl/well) in 384-well plates (Corning 3570) and stored overnight at 37° C. and 5% CO2. The following day, the compounds dissolved in DMSO were introduced to the cells and incubated for 4 hours at 37° C. and 5% CO2. The cells were then washed with PBS using Blue® Washer and 10 μl of lysis buffer containing protease inhibitor was added. The plate was placed on an orbital shaker (at 4° C.) for 30 minutes and stored overnight at −80° C. for complete lysing. The next day, the plates were thawed at room temperature for at least 30 min. Reagents were prepared in a dimmed light setting (<100 lumens). The assay was run by first adding 5 μl of the acceptor mix (reaction buffer 1: reaction buffer 2:activation buffer:acceptor beads 47:47:4:2), covering the plate with foil, shaking for 2 minutes, and incubating at RT for 60 minutes. The donor mix (dilution buffer:donor beads 47:3) was then added at 5 μl per well, placed on the shaker for 2 minutes and incubated at RT for 60 minutes before reading the plates on a PHERAstar® plate reader. The results were normalized to DMSO (0% Inhibition) and 3 μM of reference compound.
On the technique in general: In Alpha technology, singlet oxygen from a donor bead excites a nearby acceptor bead.

Like-named read-outs stand apart in the source and are kept apart here.

Usually IC50 stands for the concentration that inhibits the measured activity by half. `Cc1ccc(O)c(C)c1-c1cc(C(N)=O)nc2c1c(C#N)cn2C(C)C` (atropisomer, axis not shown; (P)) [Compound 88, (P)-3-cyano-4-(3-hydroxy-2,6-dimethylphenyl)-1-isopropyl-1H-pyrrolo[2,3-b]pyridine-6-carboxamide]: the 50% inhibitory concentration (IC50) is below 50 nM at PKMYT1 and below 50 nM in experiment [1] (Homo sapiens, HCC1806, 4 h).
In the case of `[2H]c1cc(C)c(-c2cc(C(N)=O)nc3c2c(C#N)cn3CC)c(C)c1O` (atropisomer, axis not shown; (P)) [Compound 89, (P)-3-cyano-1-ethyl-4-(3-hydroxy-2,6-dimethylphenyl-4-d)-1H-pyrrolo[2,3-b]pyridine-6-carboxamide], the IC50 was below 50 nM on PKMYT1 and below 50 nM in experiment [1] (Homo sapiens, HCC1806, 4 h).
Turning to `Cc1ccc(O)c(C)c1-c1cc(C(N)=O)nc2c1c(C#N)cn2CC(F)F` (atropisomer, axis not shown; (P)) [Compound 93, (P)-3-cyano-1-(2,2-difluoroethyl)-4-(3-hydroxy-2,6-dimethylphenyl)-1H-pyrrolo[2,3-b]pyridine-6-carboxamide], the IC50 on PKMYT1 is below 50 nM; in experiment [1] (Homo sapiens, HCC1806, 4 h), below 50 nM.
Regarding `Cc1ccc(O)c(C)c1-c1c(N)c(C(N)=O)cc2c1nc(C(F)F)n2C(F)F` (atropisomer, axis not shown; (P)) [Compound 94, (P)-6-amino-2,3-bis(difluoromethyl)-7-(3-hydroxy-2,6-dimethyl-phenyl)benzimidazole-5-carboxamide], the half-maximal inhibitory concentration (IC50) is below 50 nM on PKMYT1 and below 50 nM in experiment [1] (Homo sapiens, HCC1806, 4 h).
Turning to `Cc1ccc(O)c(C)c1-c1c(N)c(C(N)=O)cc2c1nc(C(F)F)n2-c1ncccc1F` (atropisomer, axis not shown; (P)) [Compound 95, (P)-6-amino-2-(difluoromethyl)-3-(3-fluoro-2-pyridyl)-7-(3-hydroxy-2,6-dimethyl-phenyl)benzimidazole-5-carboxamide], the IC50 on PKMYT1 is below 50 nM; in experiment [1] (Homo sapiens, HCC1806, 4 h) it was below 50 nM.
As for `CCn1cc(-n2ccnc2)c2c(-c3c(C)ccc(O)c3C)cc(C(N)=O)nc21` (atropisomer, axis not shown; (P)) [Compound 97, (P)-1-ethyl-4-(3-hydroxy-2,6-dimethylphenyl)-3-(1H-imidazol-1-yl)-1H-pyrrolo[2,3-b]pyridine-6-carboxamide], the IC50 at PKMYT1 lay in the range of 50 to 500 nM; in experiment [1] (Homo sapiens, HCC1806, 4 h), 1000 to 5000 nM.
In the same order, the values of `Cc1ccc(O)c(C)c1-c1c(N)c(C(N)=O)cc2c1nnn2C(F)F` (atropisomer, axis not shown; (P)) [Compound 98, (P)-5-amino-1-(difluoromethyl)-4-(3-hydroxy-2,6-dimethylphenyl)-1H-benzo[d][1,2,3]triazole-6-carboxamide] are below 50 nM and below 50 nM.
For `Cc1c(O)cccc1-c1c(N)c(C(N)=O)nc2c1c(C#N)cn2C` (racemic) [Compound 4, 5-Amino-3-cyano-4-(3-hydroxy-2-methylphenyl)-1-methyl-1H-pyrrolo[2,3-b]pyridine-6-carboxamide], the IC50 was below 50 nM at PKMYT1 and below 50 nM in experiment [1] (Homo sapiens, HCC1806, 4 h).
On to `Cc1ccc(O)c(C)c1-c1cc(C(N)=O)nc2c1c(C#N)cn2CC(F)(F)F` (racemic) [Compound 23, 3-cyano-4-(3-hydroxy-2,6-dimethylphenyl)-1-(2,2,2-trifluoroethyl)pyrrolo[2,3-b]pyridine-6-carboxamide], for which the IC50 is below 50 nM on PKMYT1 and below 50 nM in experiment [1] (Homo sapiens, HCC1806, 4 h).
On to `Cc1ccc(O)c(C)c1-c1cc(C(N)=O)nc2c1c(C#N)c(C)n2C` (racemic) [Compound 26, 3-cyano-4-(3-hydroxy-2,6-dimethylphenyl)-1,2-dimethyl-pyrrolo[2,3-b]pyridine-6-carboxamide], for which the IC50 at PKMYT1 was below 50 nM; in experiment [1] (Homo sapiens, HCC1806, 4 h), 50 to 500 nM.
On the same counts, the results for `Cc1ccc(O)c(C)c1-c1cc(C(N)=O)nc2c1c(Cl)cn2C` (racemic) [Compound 30, 3-chloro-4-(3-hydroxy-2,6-dimethylphenyl)-1-methyl-1H-pyrrolo[2,3-b]pyridine-6-carboxamide] are 50 to 500 nM and 1000 to 5000 nM.
In the same order, the values of `Cc1c(O)cccc1-c1c(N)c(C(N)=O)cn2c(C)nnc12` (racemic) [Compound 51, 7-Amino-8-(3-hydroxy-2-methylphenyl)-3-methyl-[1,2,4]triazolo[4,3-a]pyridine-6-carboxamide] are 500 to 1000 nM and at least 5000 nM.
Regarding `Cc1c(O)cccc1-c1c(N)c(C(N)=O)nc2c1c(C#N)nn2C` (racemic) [Compound 54, 5-Amino-3-cyano-4-(3-hydroxy-2-methylphenyl)-1-methyl-1H-pyrazolo[3,4-b]pyridine-6-carboxamide], the IC50 was below 50 nM on PKMYT1 and 50 to 500 nM in experiment [1] (Homo sapiens, HCC1806, 4 h).
Regarding `Cc1ccc(O)c(C)c1-c1c(N)c(C(N)=O)nc2c1ncn2C` (single isomer, unassigned) [Compound 2, (P)-6-Amino-7-(3-hydroxy-2,6-dimethylphenyl)-3-methyl-3H-imidazo[4,5-b]pyridine-5-carboxamide], the IC50 (at PKMYT1; in experiment [1]) was below 50 nM each time.
On to `Cc1ccc(O)c(C)c1-c1c(N)c(C(N)=O)nc2c1ncn2C` (single isomer, unassigned) [Compound 3, (M)-6-amino-7-(3-hydroxy-2,6-dimethylphenyl)-3-methyl-3H-imidazo[4,5-b]pyridine-5-carboxamide], for which the IC50 at PKMYT1 was 1000 to 5000 nM; in experiment [1], at least 5000 nM.
As for `Cc1c(O)cccc1-c1c(N)c(C(N)=O)nc2c1c(C#N)cn2C` (single isomer, unassigned) [Compound 5, (M)-5-Amino-3-cyano-4-(3-hydroxy-2-methylphenyl)-1-methyl-1H-pyrrolo[2,3-b]pyridine-6-carboxamide], the IC50 on PKMYT1 was below 50 nM; in experiment [1] (Homo sapiens, HCC1806, 4 h), below 50 nM.
As to `Cc1c(O)cccc1-c1c(N)c(C(N)=O)nc2c1c(C#N)cn2C` (single isomer, unassigned) [Compound 6, (P)-5-amino-3-cyano-4-(3-hydroxy-2-methylphenyl)-1-methyl-1H-pyrrolo[2,3-b]pyridine-6-carboxamide], the figures for the IC50 (on PKMYT1; in experiment [1]) were 500 to 1000 nM and 50 to 500 nM, respectively.
Regarding `Cc1ccc(O)c(C)c1-c1cc(C(N)=O)nc2c1c(C#N)cn2CC(F)(F)F` (single isomer, unassigned) [Compound 25], the IC50 was at least 5000 nM at PKMYT1 and at least 5000 nM in experiment [1] (Homo sapiens, HCC1806, 4 h).
As for `Cc1c(O)cccc1-c1c(N)c(C(N)=O)cn2ccnc12` (single isomer, unassigned) [Compound 45], the IC50 on PKMYT1 was at least 5000 nM; in experiment [1] (Homo sapiens, HCC1806, 4 h), at least 5000 nM.
For the compound `Cc1c(O)cccc1-c1c(N)c(C(N)=O)cn2c(C)nnc12` (single isomer, unassigned) [Compound 52, (P)-7-Amino-8-(3-hydroxy-2-methylphenyl)-3-methyl-[1,2,4]triazolo[4,3-a]pyridine-6-carboxamide], the IC50 on PKMYT1 was 50 to 500 nM; in experiment [1] (Homo sapiens, HCC1806, 4 h), at least 5000 nM.
For `Cc1c(O)cccc1-c1c(N)c(C(N)=O)cn2c(C)nnc12` (single isomer, unassigned) [Compound 53, (M)-7-amino-8-(3-hydroxy-2-methylphenyl)-3-methyl-[1,2,4]triazolo[4,3-a]pyridine-6-carboxamide], the IC50 (on PKMYT1; in experiment [1]) was at least 5000 nM each time.

The record behind these values is patent US20260207565A1, “COMPOUNDS THAT INHIBIT PKMYT1” (Exelixis, Inc., priority 2022, published 2026).
